Measurements: ChEMBL document CHEMBL1201862, “PubChem BioAssay data set” (2004)
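In this assay, cells in 96-well plates receive the compound at five concentrations for 48 hours. Endpoints are linearly interpolated between the surrounding concentrations. At the GI50, growth is halved.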 Activity calls are given as the source filed them. Cut-off read from the data, not from the text of the source: active = GI50 up to about 1.1 µM and inactive = higher.

Tests used:
Assay in all cases: growth of human tumour cells (NCI), 48 h
[1] = system: SR
[2] = system: DU-145
[3] = system: SK-OV-3
[4] = system: BT-549
[5] = system: SNB-19
[6] = system: K562
[7] = system: OVCAR-8
[8] = system: UACC-62
[9] = system: SF-295
[10] = system: CAKI-1
[11] = system: U-251
[12] = system: COLO 205
[13] = system: NCI-H23
[14] = system: HCC 2998
[15] = system: T47D
[16] = system: MDA-N
[17] = system: HOP-62
[18] = system: MDA-MB-231
[19] = system: MCF7
[20] = system: NCI/ADR-RES

Measured: GI50

COc1cccc2c1CCc1cc3c(N)nc(N)nc3nc1-2
inactive: [1] 3.41 µM | [2] 5.16 µM | [3] 17.7 µM | [4] 26.4 µM | [5] 5.45 µM | [6] 2.23 µM | [7] 3.31 µM | [8] 7.23 µM | [9] 4.42 µM | [10] 5.45 µM | [11] 2.67 µM | [12] 4.02 µM | [13] 5.06 µM | [14] 2.29 µM | [15] 7.94 µM | [16] 2.94 µM | [17] 5.4 µM | [18] 3.09 µM | [19] 6.31 µM | [20] 16.7 µM

Cc1coc2c1CC1OC1(C)CCC1OC1(C)C2 (stereo not given)
inactive: [1] > 100 µM | [2] > 100 µM | [3] > 100 µM | [4] > 100 µM | [5] > 100 µM | [6] > 100 µM | [7] > 100 µM | [8] > 100 µM | [9] > 100 µM | [10] > 100 µM | [11] > 100 µM | [12] > 100 µM | [13] > 100 µM | [14] > 100 µM | [15] > 100 µM | [16] > 100 µM | [17] > 100 µM | [18] > 100 µM | [19] > 100 µM | [20] > 100 µM
